{"source": "patent US7345028B1", "about": "“Energy-protective composition comprising adenosine phosphates” (priority 2002, dated 2008)", "origin": "cited, not measured here", "tested_on": "experimental animals", "conditions": "administered prior to and after gamma irradiation", "data": [{"molecule": "Nc1ncnc2c1ncn2[C@@H]1O[C@H](COP(=O)(O)OP(=O)(O)O)[C@@H](O)[C@H]1O", "note": "[adenosine diphosphate]", "values": [{"measurement": "protective action against irradiation", "value": "protective action"}]}]}
